The text below walks through data of patent publication US20240024488A1, “COMPOUNDS AND USES THEREOF” (Foghorn Therapeutics Inc., priority 2020, published 2024).

The target of one experiment is T1, HiBit-BRM fusion protein (Homo sapiens, UniProt P51531).
T1 construct: expressed in transfected cells
The experiment can be described thus: HiBiT-BRM cell-based degradation assay (Nano-Glo HiBiT Lytic Detection, 24 h). Conditions: HeLa cell line expressing HiBiT-BRM; for DC50: read-out: BRM HiBit Degradation IC50. An outline of the steps:
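HeLa cells stably expressing HiBiT-BRM were dosed with compounds (10-point 3-fold dilutions, 30 μM final top dose, duplicate) for 24 h. HiBiT signal was read by lytic LgBiT complementation luminescence. Percent degradation was normalised to DMSO (high control) and 2 μM of a reference BRM/BRG1 degrader (low control).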
(HiBiT is a short tag that completes a luciferase, so light tracks the accessible tagged protein.)

Experiment [1] concerns the target T2, HiBit-BRG1 fusion protein (Homo sapiens, UniProt P51532).
T2 construct: expressed in transfected cells
The experiment can be described thus: HiBiT-BRG1 cell-based degradation assay (Nano-Glo HiBiT Lytic Detection, 24 h). Conditions: HeLa cell line expressing HiBit-BRG1 and LgBit; for Dmax: read-out: BRG1 HiBit Degradation Maximum (%); for DC50: read-out: BRMG1 HiBit Degradation IC50. An outline of the steps:
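Stable HeLa line co-expressing HiBit-BRG1 and LgBit, 5000 cells/well, treated 24 h in a tissue culture incubator. Lysed with Nano-Glo HiBiT lytic reagent, luminescence read. % degradation normalized to DMSO (high control) and 2 μM reference BRM/BRG1 degrader (low control).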

T1 sequence (P51531 whole entry, the tested form may be a part): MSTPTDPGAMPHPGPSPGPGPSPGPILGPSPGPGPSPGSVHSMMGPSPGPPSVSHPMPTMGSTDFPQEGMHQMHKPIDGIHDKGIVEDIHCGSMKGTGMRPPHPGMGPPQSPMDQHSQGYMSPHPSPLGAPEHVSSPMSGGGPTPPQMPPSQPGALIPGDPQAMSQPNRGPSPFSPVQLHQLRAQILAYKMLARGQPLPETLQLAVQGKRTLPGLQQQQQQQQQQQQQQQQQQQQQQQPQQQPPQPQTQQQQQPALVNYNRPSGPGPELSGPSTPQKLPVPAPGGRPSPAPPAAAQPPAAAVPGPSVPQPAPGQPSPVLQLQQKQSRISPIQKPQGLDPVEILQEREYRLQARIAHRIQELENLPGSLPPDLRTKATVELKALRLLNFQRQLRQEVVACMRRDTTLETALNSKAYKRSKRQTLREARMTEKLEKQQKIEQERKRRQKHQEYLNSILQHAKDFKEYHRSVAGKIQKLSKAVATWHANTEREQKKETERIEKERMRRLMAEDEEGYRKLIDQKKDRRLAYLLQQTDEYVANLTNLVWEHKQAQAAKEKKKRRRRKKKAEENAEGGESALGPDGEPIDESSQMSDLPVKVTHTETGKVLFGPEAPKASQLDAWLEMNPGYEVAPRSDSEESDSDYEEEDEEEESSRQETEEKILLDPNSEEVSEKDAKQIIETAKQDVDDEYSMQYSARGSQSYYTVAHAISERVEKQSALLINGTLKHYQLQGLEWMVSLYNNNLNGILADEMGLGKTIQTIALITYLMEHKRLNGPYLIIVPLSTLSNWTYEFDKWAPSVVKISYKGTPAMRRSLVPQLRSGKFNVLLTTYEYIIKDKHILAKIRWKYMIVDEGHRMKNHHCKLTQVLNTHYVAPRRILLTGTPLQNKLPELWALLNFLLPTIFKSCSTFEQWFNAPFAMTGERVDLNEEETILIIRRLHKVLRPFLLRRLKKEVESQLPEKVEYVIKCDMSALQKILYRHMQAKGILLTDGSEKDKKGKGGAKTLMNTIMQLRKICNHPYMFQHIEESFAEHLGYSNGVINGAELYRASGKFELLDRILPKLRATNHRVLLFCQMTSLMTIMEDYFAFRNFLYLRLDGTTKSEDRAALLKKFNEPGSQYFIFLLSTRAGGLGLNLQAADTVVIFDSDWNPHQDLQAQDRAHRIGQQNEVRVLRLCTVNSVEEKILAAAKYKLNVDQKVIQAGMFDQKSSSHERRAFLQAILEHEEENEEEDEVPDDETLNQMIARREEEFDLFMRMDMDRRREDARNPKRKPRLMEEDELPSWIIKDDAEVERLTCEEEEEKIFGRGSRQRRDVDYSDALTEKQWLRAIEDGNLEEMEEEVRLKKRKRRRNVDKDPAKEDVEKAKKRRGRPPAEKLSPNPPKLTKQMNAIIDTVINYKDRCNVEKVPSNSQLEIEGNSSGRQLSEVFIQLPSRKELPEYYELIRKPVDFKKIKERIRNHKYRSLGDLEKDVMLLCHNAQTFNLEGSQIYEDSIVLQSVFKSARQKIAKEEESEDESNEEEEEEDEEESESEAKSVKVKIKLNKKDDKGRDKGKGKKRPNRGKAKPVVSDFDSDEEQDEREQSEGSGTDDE
T2 sequence (P51532 whole entry, the tested form may be a part): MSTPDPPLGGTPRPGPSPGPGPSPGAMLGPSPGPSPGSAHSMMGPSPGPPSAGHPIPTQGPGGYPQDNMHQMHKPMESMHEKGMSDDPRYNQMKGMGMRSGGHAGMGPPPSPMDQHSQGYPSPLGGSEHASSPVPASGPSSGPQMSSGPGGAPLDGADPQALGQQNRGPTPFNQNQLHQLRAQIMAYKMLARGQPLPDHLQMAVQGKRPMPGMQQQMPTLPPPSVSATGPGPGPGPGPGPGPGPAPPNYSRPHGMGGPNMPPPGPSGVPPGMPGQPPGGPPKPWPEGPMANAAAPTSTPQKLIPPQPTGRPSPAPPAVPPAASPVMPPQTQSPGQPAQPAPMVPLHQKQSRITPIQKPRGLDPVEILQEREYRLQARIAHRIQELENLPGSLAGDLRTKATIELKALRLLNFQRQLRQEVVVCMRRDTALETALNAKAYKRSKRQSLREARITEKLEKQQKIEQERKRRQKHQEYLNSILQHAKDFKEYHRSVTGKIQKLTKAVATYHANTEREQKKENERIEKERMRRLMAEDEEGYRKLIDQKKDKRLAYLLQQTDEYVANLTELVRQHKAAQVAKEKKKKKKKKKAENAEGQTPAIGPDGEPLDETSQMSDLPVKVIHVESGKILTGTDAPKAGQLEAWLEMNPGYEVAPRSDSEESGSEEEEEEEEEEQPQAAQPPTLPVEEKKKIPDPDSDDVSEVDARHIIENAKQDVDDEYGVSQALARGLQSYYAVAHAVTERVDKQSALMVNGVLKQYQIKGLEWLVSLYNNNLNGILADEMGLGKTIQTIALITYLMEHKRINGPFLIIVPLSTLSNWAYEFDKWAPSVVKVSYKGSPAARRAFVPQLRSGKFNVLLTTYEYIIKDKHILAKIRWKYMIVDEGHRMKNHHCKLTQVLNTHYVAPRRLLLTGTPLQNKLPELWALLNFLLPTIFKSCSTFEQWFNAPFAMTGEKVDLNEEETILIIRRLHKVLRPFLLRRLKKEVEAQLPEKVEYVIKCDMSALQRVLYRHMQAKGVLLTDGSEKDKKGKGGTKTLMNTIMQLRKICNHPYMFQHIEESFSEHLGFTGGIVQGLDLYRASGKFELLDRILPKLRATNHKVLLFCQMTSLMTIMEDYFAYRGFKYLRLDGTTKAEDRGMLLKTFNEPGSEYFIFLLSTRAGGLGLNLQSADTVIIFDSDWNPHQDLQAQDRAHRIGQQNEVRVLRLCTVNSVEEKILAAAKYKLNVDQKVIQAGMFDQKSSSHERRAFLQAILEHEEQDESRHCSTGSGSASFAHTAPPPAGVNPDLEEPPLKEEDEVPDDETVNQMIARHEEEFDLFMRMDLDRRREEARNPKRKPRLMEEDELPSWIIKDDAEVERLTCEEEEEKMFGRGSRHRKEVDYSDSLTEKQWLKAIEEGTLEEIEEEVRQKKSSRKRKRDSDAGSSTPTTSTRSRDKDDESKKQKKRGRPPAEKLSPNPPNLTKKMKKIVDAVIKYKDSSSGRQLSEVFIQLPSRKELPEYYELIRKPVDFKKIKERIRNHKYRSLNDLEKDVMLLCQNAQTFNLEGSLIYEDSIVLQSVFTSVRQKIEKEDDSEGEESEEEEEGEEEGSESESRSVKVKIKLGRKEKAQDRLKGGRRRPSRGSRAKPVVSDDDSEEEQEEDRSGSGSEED

Turning to `Cc1ncsc1-c1ccc(CNC(=O)[C@@H]2C[C@@H](O)CN2C(=O)[C@@H](NC(=O)CN2CC(c3cc4cc(-c5ccccc5O)nnc4[nH]3)C2)C(C)(C)C)cc1` (racemic) [Compound 61, (2S,4R)-4-hydroxy-1-((S)-2-(2-(3-(3-(2-hydroxyphenyl)-7H-pyrrolo[2,3-c]pyridazin-6-yl)azetidin-1-yl)acetamido)-3,3-dimethylbutanoyl)-N-(4-(4-methylthiazol-5-yl)benzyl)pyrrolidine-2-carboxamide], on HiBit-BRM fusion protein, the “BRM HiBit Degradation Maximum (%)” value is reported as “A (“A” indicates maximum degradation ≥ 75%)” and the DC50 was greater than 1000 nM. Also, in experiment [1], the Dmax was greater than 75% and the DC50 is greater than 1000 nM.

Consider `Cc1ncsc1-c1ccc(CNC(=O)[C@@H]2C[C@@H](O)CN2C(=O)[C@@H](NC(=O)CCCNC(=O)[C@@H]2CCc3[nH]c4nnc(-c5ccccc5O)cc4c3C2)C(C)(C)C)cc1` (single isomer, unassigned) [Compound 196], for which, on HiBit-BRM fusion protein, the “BRM HiBit Degradation Maximum (%)” value is “B (“B” indicates maximum degradation ≥ 50%)” and the DC50 is greater than 100 nM. In addition, the Dmax in experiment [1] is less than 50%.

In the case of `Cc1ncsc1-c1ccc(CNC(=O)[C@@H]2C[C@@H](O)CN2C(=O)[C@@H](NC(=O)CCC(=O)N[C@H]2CCc3[nH]c4nnc(-c5ccccc5O)cc4c3C2)C(C)(C)C)cc1` (relative stereo) [Compound 174, N1-((S)-1-((2S,4R)-4-hydroxy-2-((4-(4-methylthiazol-5-yl)benzyl)carbamoyl)pyrrolidin-1-yl)-3,3-dimethyl-1-oxobutan-2-yl)-N4-((S)-3-(2-hydroxyphenyl)-6,7,8,9-tetrahydro-5H-pyridazino[3,4-b]indol-6-yl)succinamide], on HiBit-BRM fusion protein, the “BRM HiBit Degradation Maximum (%)” value was “B (“B” indicates maximum degradation ≥ 50%)” and the DC50 was greater than 1000 nM. The Dmax in experiment [1] was less than 50%.

Regarding `Cc1ncsc1-c1ccc([C@H](C)NC(=O)[C@@H]2C[C@@H](O)CN2C(=O)[C@@H](c2cc(N(C)CCN3CC4(Cc5cc(-c6ccccc6O)nnc5N4)C3)no2)C(C)C)cc1` (racemic) [Compound 87, (2S,4R)-4-hydroxy-1-((R)-2-(3-((2-(3′-(2-hydroxyphenyl)-5′,7′-dihydrospiro[azetidine-3,6′-pyrrolo[2,3-c]pyridazin]-1-yl)ethyl)(methyl)amino)isoxazol-5-yl)-3-methylbutanoyl)-N-((S)-1-(4-(4-methylthiazol-5-yl)phenyl)ethyl)pyrrolidine-2-carboxamide], at HiBit-BRM fusion protein, the “BRM HiBit Degradation Maximum (%)” value is “C (“C” indicates maximum degradation < 50%)”. Moreover, the Dmax in experiment [1] is less than 50%.

Regarding `Cc1ncsc1-c1ccc([C@H](C)NC(=O)[C@@H]2C[C@@H](O)CN2C(=O)[C@@H](c2cc(OCCN(C)[C@H]3CCc4[nH]c5nnc(-c6ccccc6O)cc5c4C3)no2)C(C)C)cc1` (single isomer, unassigned) [Compound 165], at HiBit-BRM fusion protein, the “BRM HiBit Degradation Maximum (%)” value is listed as “A (“A” indicates maximum degradation ≥ 75%)” and the DC50 is greater than 100 nM. Further, the Dmax in experiment [1] was less than 50%.

As for `Cc1ncsc1-c1ccc([C@H](C)NC(=O)[C@@H]2C[C@@H](O)CN2C(=O)[C@@H](c2cc(OCCCN[C@H]3CCc4[nH]c5nnc(-c6ccccc6O)cc5c4C3)no2)C(C)C)cc1` [Compound 143, (2S,4R)-4-hydroxy-1-((R)-2-(3-(3-(((S)-3-(2-hydroxyphenyl)-6,7,8,9-tetrahydro-5H-pyridazino[3,4-b]indol-6-yl)amino)propoxy)isoxazol-5-yl)-3-methylbutanoyl)-N-((S)-1-(4-(4-methylthiazol-5-yl)phenyl)ethyl)pyrrolidine-2-carboxamide], on HiBit-BRM fusion protein, the “BRM HiBit Degradation Maximum (%)” value is “A (“A” indicates maximum degradation ≥ 75%)” and the DC50 is greater than 100 nM. Further, the Dmax in experiment [1] was less than 50%.

`Cc1ncsc1-c1ccc([C@H](C)NC(=O)[C@@H]2C[C@@H](O)CN2C(=O)[C@@H](c2cc(OCCN3CC(c4[nH]c5nnc(-c6cc(F)ccc6O)cc5c4C)C3)no2)C(C)C)cc1` (racemic) [Compound 130, (2S,4R)-1-((R)-2-(3-(2-(3-(3-(5-fluoro-2-hydroxyphenyl)-5-methyl-7H-pyrrolo[2,3-c]pyridazin-6-yl)azetidin-1-yl)ethoxy)isoxazol-5-yl)-3-methylbutanoyl)-4-hydroxy-N-((S)-1-(4-(4-methylthiazol-5-yl)phenyl)ethyl)pyrrolidine-2-carboxamide]: on HiBit-BRM fusion protein, the “BRM HiBit Degradation Maximum (%)” value is “A (“A” indicates maximum degradation ≥ 75%)” and the DC50 is less than 10 nM. For the same compound, in experiment [1], the Dmax is greater than 75% and the DC50 was greater than 100 nM.

Regarding `O=C1CCC(N2C(=O)c3cccc(OCCCCC(=O)N4CC(c5cc6cc(-c7ccccc7O)nnc6[nH]5)C4)c3C2=O)C(=O)N1` (stereo not drawn) [Compound 7, 2-(2,6-dioxopiperidin-3-yl)-4-((5-(3-(3-(2-hydroxyphenyl)-7H-pyrrolo[2,3-c]pyridazin-6-yl)azetidin-1-yl)-5-oxopentyl)oxy)isoindoline-1,3-dione], at HiBit-BRM fusion protein, the “BRM HiBit Degradation Maximum (%)” value is “B (“B” indicates maximum degradation ≥ 50%)” and the DC50 is greater than 1000 nM. In addition, in experiment [1], the Dmax was greater than 50% and the DC50 is greater than 1000 nM.

As for `Cc1ncsc1-c1ccc([C@H](C)NC(=O)[C@@H]2C[C@@H](O)CN2C(=O)[C@@H](c2cc(OCCN3CC(c4cc5cc(-c6cc(F)ccc6O)nnc5[nH]4)C3)no2)C(C)C)cc1` (racemic) [Compound 288, (2S,4R)-1-((R)-2-(3-(2-(3-(3-(5-fluoro-2-hydroxyphenyl)-7H-pyrrolo[2,3-c]pyridazin-6-yl)azetidin-1-yl)ethoxy)isoxazol-5-yl)-3-methylbutanoyl)-4-hydroxy-N-((S)-1-(4-(4-methylthiazol-5-yl)phenyl)ethyl)pyrrolidine-2-carboxamide], on HiBit-BRM fusion protein, the “BRM HiBit Degradation Maximum (%)” value is on record as “A (“A” indicates maximum degradation ≥ 75%)” and the DC50 is greater than 100 nM. Also, the Dmax in experiment [1] was less than 50%.

In the case of `Cc1ncsc1-c1ccc([C@H](C)NC(=O)[C@@H]2C[C@@H](O)CN2C(=O)[C@H](c2cc(CCCN3CC(c4cc5cc(-c6ccccc6O)nnc5[nH]4)C3)no2)C(C)C)cc1` (single isomer, unassigned) [Compound 202], the “BRM HiBit Degradation Maximum (%)” value on HiBit-BRM fusion protein is given as “C (“C” indicates maximum degradation < 50%)”. In experiment [1], the Dmax was less than 50%.

In the case of `Cc1ncsc1-c1ccc([C@H](C)NC(=O)[C@@H]2C[C@@H](O)CN2C(=O)[C@@H](c2cc(OCCN[C@@H]3CCc4[nH]c5nnc(-c6ccccc6O)cc5c4C3)no2)C(C)C)cc1` [Compound 181, (2S,4R)-4-hydroxy-1-((R)-2-(3-(2-(((R)-3-(2-hydroxyphenyl)-6,7,8,9-tetrahydro-5H-pyridazino[3,4-b]indol-6-yl)amino)ethoxy)isoxazol-5-yl)-3-methylbutanoyl)-N-((S)-1-(4-(4-methylthiazol-5-yl)phenyl)ethyl)pyrrolidine-2-carboxamide], at HiBit-BRM fusion protein, the “BRM HiBit Degradation Maximum (%)” value is “A (“A” indicates maximum degradation ≥ 75%)” and the DC50 is greater than 100 nM. Also, in experiment [1], the Dmax is less than 50%.

`Cc1ncsc1-c1ccc(CNC(=O)[C@@H]2C[C@@H](O)CN2C(=O)[C@@H](NC(=O)CCCCC(=O)N2CC(c3cc4cc(-c5ccccc5O)nnc4[nH]3)C2)C(C)(C)C)cc1` [Compound 18, (2S,4R)-4-hydroxy-1-((S)-2-(6-(3-(3-(2-hydroxyphenyl)-7H-pyrrolo[2,3-c]pyridazin-6-yl)azetidin-1-yl)-6-oxohexanamido)-3,3-dimethylbutanoyl)-N-(4-(4-methylthiazol-5-yl)benzyl)pyrrolidine-2-carboxamide]: the “BRM HiBit Degradation Maximum (%)” value on HiBit-BRM fusion protein is on record as “C (“C” indicates maximum degradation < 50%)”. Also, the Dmax in experiment [1] was less than 50%.
